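Five concentrations, 48 hours, 96-well plates. At the GI50, growth is halved.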 The source made the active and inactive calls. Rule as the data show it: active = GI50 up to about 1.1 µM and inactive = higher.
Tests used:
Assay in all cases: NCI anticancer screen, dose series, 48 h
[1] = system: SNB-19
[2] = system: T47D
[3] = system: UACC-62
[4] = system: A498
[5] = system: COLO 205
[6] = system: MOLT-4
[7] = system: SK-OV-3
[8] = system: OVCAR-5
[9] = system: EKVX
[10] = system: OVCAR-3
[11] = system: Malme-3M
[12] = system: HCC 2998
[13] = system: SF-295
[14] = system: Hs-578T
[15] = system: BT-549
[16] = system: MDA-MB-231
[17] = system: M14
[18] = system: TK-10
[19] = system: HOP-92
[20] = system: DU-145
[21] = system: HCT-116
[22] = system: MDA-MB-435
[23] = system: RPMI-8226
[24] = system: PC-3
[25] = system: HOP-62
[26] = system: SN12C
[27] = system: CCRF-CEM
[28] = system: IGROV-1
[29] = system: LOX IMVI
[30] = system: MDA-N
[31] = system: CAKI-1
[32] = system: UO-31
[33] = system: SW-620
[34] = system: SK-MEL-5
[35] = system: HT-29
[36] = system: NCI/ADR-RES
[37] = system: NCI-H460
[38] = system: ACHN
[39] = system: HCT-15
[40] = system: U-251
[41] = system: 786-0
[42] = system: HL-60
[43] = system: OVCAR-4
[44] = system: MCF7
[45] = system: SNB-75
[46] = system: NCI-H522
[47] = system: OVCAR-8
[48] = system: SK-MEL-2
[49] = system: KM12
[50] = system: SF-539
[51] = system: SR
[52] = system: A549
[53] = system: SK-MEL-28
[54] = system: NCI-H23
[55] = system: UACC-257
[56] = system: RXF 393
[57] = system: SF-268
[58] = system: K562
[59] = system: NCI-H226

Measured: GI50

COc1cc(/C=N/n2c(-c3ccccc3)nn(C(C)=O)c2=O)cc(OC)c1OC
inactive: [1] 2560 nM | [2] 8020 nM | [3] 1920 nM | [4] 1590 nM | [5] 1580 nM | [7] 4200 nM | [8] 20000 nM | [9] 8810 nM | [11] 5360 nM | [14] 3130 nM | [15] 8550 nM | [16] 4610 nM | [17] 2140 nM | [18] 3850 nM | [19] > 33900 nM | [20] 4460 nM | [23] 1490 nM | [24] 2070 nM | [25] 12000 nM | [26] 5330 nM | [27] 2230 nM | [28] 2110 nM | [29] 2720 nM | [31] 1770 nM | [32] 1570 nM | [36] 1250 nM | [38] 6000 nM | [40] 3000 nM | [41] 4360 nM | [43] 9910 nM | [45] 3010 nM | [47] 3780 nM | [48] 1720 nM | [50] 1660 nM | [52] 3200 nM | [53] 7130 nM | [54] 4070 nM | [55] 3240 nM | [56] 5260 nM | [57] 6270 nM | [59] 18500 nM
635 nM: [39]
active: [6] 714 nM | [10] 690 nM | [12] 748 nM | [13] 1020 nM | [21] 927 nM | [22] 190 nM | [30] 228 nM | [33] 836 nM | [34] 675 nM | [35] 405 nM | [37] 619 nM | [42] 745 nM | [44] 684 nM | [46] 818 nM | [49] 521 nM | [51] 87.5 nM | [58] 557 nM

C=CCNC1=C2C[C@@H](C)C[C@H](OC)[C@H](O)[C@@H](C)/C=C(\C)[C@H](OC(N)=O)[C@@H](OC)/C=C\C=C(/C)C(=O)NC(=CC1=O)C2=O [TANESPIMYCIN]
inactive: [4] 5070 nM | [9] 4010 nM | [15] 5730 nM | [19] 3690 nM | [31] 1290 nM | [36] 5690 nM | [43] 4390 nM | [59] 4490 nM
active: [1] 525 nM | [2] 847 nM | [3] 32.6 nM | [5] 12.4 nM | [6] 527 nM | [7] 26.2 nM | [8] 177 nM | [10] 115 nM | [11] 61.9 nM | [12] 66.4 nM | [13] 74.5 nM | [14] 575 nM | [16] 1110 nM | [17] 21.4 nM | [18] 88.1 nM | [20] 56.9 nM | [21] 31.1 nM | [22] 42.7 nM | [23] 73.1 nM | [24] 47 nM | [25] 150 nM | [26] 30.8 nM | [27] 493 nM | [28] 33.1 nM | [29] 18.6 nM | [30] 19.9 nM | [32] 428 nM | [33] 279 nM | [34] 25.9 nM | [35] 11.3 nM | [37] 13.6 nM | [38] 127 nM | [40] 158 nM | [41] 63.8 nM | [42] 48.9 nM | [44] 13.7 nM | [45] 17.3 nM | [46] 43.1 nM | [47] 60.7 nM | [48] 292 nM | [49] 16.5 nM | [50] 42.8 nM | [51] 15.8 nM | [52] 36.9 nM | [53] 396 nM | [54] 14 nM | [55] 53.2 nM | [56] 81.3 nM | [57] 593 nM | [58] 40.5 nM
204 nM: [39]

Reference: ChEMBL document CHEMBL1201862, “PubChem BioAssay data set” (2004)
